For experiment [1], the system named is preclinical models and glaucoma patients. More on the design: method as in PMID 25488946, PMID 28234563, PMID 21396362. The following applies: cited from earlier work.
For experiment [2], the system named is retinal ganglion cells (RGCs) in retinal ischemia–reperfusion injury rats. Nature of the experiment: Retinal ischemia–reperfusion injury model in rats (HE staining, Brn-3a immunofluorescence). It is filed as in vivo, rat. The following applies: Memantine 10 mg/kg tail vein, vs Model group. On the procedure: Male Sprague Dawley rats were anesthetized with pentobarbital sodium (30 mg/kg, i.p.). Local anesthesia was administered to the corneas using tetracaine hydrochloride, followed by pupil dilation with tropicamide. A 30-gauge infusion needle was inserted into the anterior chamber of the eye and connected to a normal saline reservoir until the iris turned white. Retinal ischemia was maintained for 1 h at IOP of 110 mmHg. Upon careful withdrawal of the needle, IOP returned to normal, thereby inducing retinal ischemia–reperfusion injury. MN-08 (12 mg/kg) and Memantine (10 mg/kg) were administered via tail vein injection at 3 and 6 h post-surgery and continued twice daily for the subsequent two days. […]
Rats were euthanized by deep anesthetization with pentobarbital sodium (100 mg/kg, i.p.), and their eyes were enucleated for histology analysis. […] Ganglion cell complex (GCC) thickness and the RGCs numbers (retinal ganglion cell layer) were measured and analyzed with ImageJ software.
Eyes of sacrificed rats were rapidly removed; the cornea was cut along the corneoscleral rim after rinsing with PBS under the microscope. […] RGCs were observed using a fluorescence microscope (Olympus, Tokyo, Japan). The number of Brn-3a positive cells was counted manually in five randomly selected fields of view for each region of the whole-mount retina (including the center, mid-periphery, and periphery).

For experiment [3], the system named is human trabecular meshwork cells (HTMCs). As to the kind of experiment: cGMP ELISA assay in HTMCs. Type of experiment: cell-based. The following applies: 30 min. On the procedure: Primary human trabecular meshwork cells (HTMCs) were isolated from the juxtacanalicular and corneoscleral regions of the human eye from ScienCell Research Laboratories (ScienCell, Carlsbad, CA). HTMCs were maintained in a complete medium consisting of DMEM enriched with 10% fetal bovine serum (FBS) and antibiotics (100 U/ml penicillin and 100 μg/ml streptomycin). Cells were cultured in a humidified incubator containing 5% CO2 at 37 °C. Experiments are conducted using HTMCs between the 5th and 8th passages to avoid cellular senescence. All reagents were obtained from Gibco (San Diego, CA, USA).
HTMCs were seeded at a density of 2 × 10^5 cells per well in 6-well plates. When reaching 80% confluency, the cells were subsequently incubated overnight in low-serum medium (DMEM supplemented with 0.5% FBS). […] After incubating, cells were harvested and lysed, and the levels of cGMP were detected by an ELISA kit (Abcam Corporation, Cambridge, UK). The procedure was conducted following the instructions provided by the manufacturer.

Another experiment relates to glaucoma patients. The following applies: cited from earlier work.
Experiment [4] relates to carbomer-induced glaucoma rabbit model. As to the kind of experiment: Carbomer-induced experimental glaucoma model in rabbits (IOP). Type of experiment: in vivo. The note with it: latanoprost 0.005% single topical instillation; 0-360 min. As to the method:
The methods were performed as previously described. New Zealand rabbits were anesthetized using an auricular vein injection of 60 mg/kg pentobarbital sodium. Local anesthesia of the corneas was achieved using tetracaine hydrochloride, followed by pupil dilation with tropicamide. An experimental glaucoma model was established by bilaterally injecting 0.25% carbomer (0.1 mL) into the anterior eye chamber of the rabbits. On the fifth day post-carbomer injection, stable high IOP was induced in the rabbits. MN-08 (0.5%, 0.2%, 0.1%, and 0.02%) or latanoprost (0.005%) was administered with a single topical instillation. IOP was measured continuously at 0, 30, 60, 120, 240, and 360 min following instillation with MN-08 or latanoprost (with 5 consecutive measurements being averaged to obtain a single value). At the last IOP measurement, the rabbits were euthanized under sodium pentobarbital anesthesia (100 mg/kg, i.v).

Consider three molecules from article PMC12229680, “Neuroprotective and intraocular pressure lowering effects of dual-functional memantine nitrate MN-08 on the experimental models of glaucoma” (Scientific Reports, 2025).

SMILES strings stand for the structures.

In the case of `O=C(CCC/C=C\C[C@@H]1[C@@H](CC[C@@H](O)CCc2ccccc2)[C@H](O)C[C@@H]1O)OCCCCO[N+](=O)[O-]` [Latanoprostene bunod (LBN), Latanoprostene bunod], the “reduction in IOP compared to latanoprost” value in experiment [1] was “great reduction”.
As for `CC12CC3CC(C)(C1)CC(N)(C3)C2` [Memantine], the “degree of retinal damage (HE staining)” value in experiment [2] (3 and 6 h post-surgery then twice daily for two days) was “reduced”. Further, the “survival of RGCs (Brn-3a positive cells)” value in experiment [2] is “significantly increased”. Also, in experiment [3] (memantine 10 μM), the cGMP levels entry was “neither latanoprost (0.1 μM) nor memantine (10 μM) had any statistically significant effects”. The glaucoma progression entry in the experiment on glaucoma patients (clinical trials) was “failed to significantly delay”. Moreover, the “effect in protecting visual function” value in the experiment with glaucoma patients (phase 3 clinical trial) is given as “no significant effect”.
As for `CC(C)OC(=O)CCC/C=C\C[C@@H]1[C@@H](CC[C@@H](O)CCc2ccccc2)[C@H](O)C[C@@H]1O` [latanoprost], the cGMP levels entry in experiment [3] (latanoprost 0.1 μM) was “neither latanoprost (0.1 μM) nor memantine (10 μM) had any statistically significant effects”. The “carbomer-induced IOP elevation (change from baseline)” value in experiment [4] is reported as “reduced”.
